Measurements as given in patent US5498623A, “4(5) substituted imidazoles and their preparation and use” (Orion-yhtyma Oy, priority 1991, dated 1996).
Read-outs that look alike come from different tables or passages of the source.

Assays:
α2-adrenoceptor [1] = target: T1, α2-adrenoceptor (Mus musculus, UniProt Q01338); assay: α2-Antagonism in vitro, isolated electrically stimulated mouse vas deferens (vs detomidine)
T1 construct: isolated, electrically stimulated mouse vas deferens preparation; from tissue; host or cells: isolated mouse vas deferens
T1 sequence (Q01338 1-465): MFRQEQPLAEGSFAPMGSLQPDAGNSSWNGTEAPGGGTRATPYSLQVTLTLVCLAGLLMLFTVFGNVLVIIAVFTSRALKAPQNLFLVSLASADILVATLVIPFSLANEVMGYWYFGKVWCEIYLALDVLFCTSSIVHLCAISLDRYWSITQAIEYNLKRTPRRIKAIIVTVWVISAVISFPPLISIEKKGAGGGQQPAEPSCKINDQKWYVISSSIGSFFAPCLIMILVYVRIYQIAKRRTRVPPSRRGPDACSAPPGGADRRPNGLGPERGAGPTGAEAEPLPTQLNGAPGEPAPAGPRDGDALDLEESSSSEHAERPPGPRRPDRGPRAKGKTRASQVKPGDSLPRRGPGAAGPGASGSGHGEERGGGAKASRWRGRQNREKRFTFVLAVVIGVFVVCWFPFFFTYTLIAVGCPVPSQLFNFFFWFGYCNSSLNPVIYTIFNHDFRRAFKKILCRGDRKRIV
Experimental: 1. α2 -Antagonism in vitro
α2 -Antagonism was determined by means of isolated, electrically stimulated mouse vas deferens preparation (Marshall et al., Br. J. Pharmac. 62, 147, 151, 1978). In this model, α2 -agonist (detomidine) blocks electrically stimulated muscular contractions and the effect of the α2 -antagonist is seen by administering it prior to the agonist and by determining its pA2 value.

α1-adrenoceptor [2] = assay: α1-Antagonism in vitro, isolated epididymal portion of rat vas deferens (vs phenylephrine); conditions: contraction induced by phenylephrine
Experimental: (§1) To obtain information also on the selectivity of the antagonist between α1 - and α2 -receptors, its ability to inhibit or stimulate α1 -receptors was determined by means of isolated epididymal portion of rat vas deferens. The reference substances were now phenylephrine, a known α1 -agonist, and prazosin, a known α1 -antagonist. To determine α1 -antagonism, muscular contraction was induced by phenylephrine and the pA2 value of the studied compound was determined as above α1 -Agonist effect is presented as the pD2 value (negative logarithm of the molar concentration of the compound producing 50 percent of maximal contraction).

α1-adrenoceptor [3] = target: T2, α1-adrenoceptor (Rattus norvegicus, UniProt P43140); conditions: for α1-Agonism (pD2) rat vas deferens / EC50: negative logarithm of molar concentration producing 50 percent of maximal contraction; for EC50: read-out: α1-Agonism (pD2) rat vas deferens (converted)
T2 sequence (P43140 1-466): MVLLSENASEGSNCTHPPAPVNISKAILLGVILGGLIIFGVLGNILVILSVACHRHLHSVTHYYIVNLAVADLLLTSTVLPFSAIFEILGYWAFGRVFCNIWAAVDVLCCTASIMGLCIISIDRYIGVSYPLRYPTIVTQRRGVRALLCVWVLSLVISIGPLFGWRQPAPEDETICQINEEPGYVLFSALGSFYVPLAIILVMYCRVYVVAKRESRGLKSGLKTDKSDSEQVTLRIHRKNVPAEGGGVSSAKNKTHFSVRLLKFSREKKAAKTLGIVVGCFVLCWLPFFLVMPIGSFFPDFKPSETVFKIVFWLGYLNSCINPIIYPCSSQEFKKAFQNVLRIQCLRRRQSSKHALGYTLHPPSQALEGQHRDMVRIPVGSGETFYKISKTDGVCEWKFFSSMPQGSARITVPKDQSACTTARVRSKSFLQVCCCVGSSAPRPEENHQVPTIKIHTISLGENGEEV
Experimental: as §1

α2-adrenoceptor [4] = assay: α2-Adrenoceptor antagonism in vivo, reversal of detomidine-induced mydriasis in anaesthetized rat; conditions: dose producing 50 per cent reversal of detomidine-induced mydriasis
Experimental: 2. α2 -Adrenoceptor antagonism in vivo
It is known that in the rat α2 -agonists induce dilatation of the pupil (mydriasis) which effect is transmitted via postsynaptic α2 -receptors in the central nervous system. In anaesthetized rat, a standard dose of an α2 -agonist, detomidine, was administered intravenously. Thereafter increasing doses of the studied antagonists were injected intravenously and the reversal of detomidine-induced mydriasis was followed. The ED50 value of the antagonist, i.e. the dose producing a 50 per cent reversal, was determined.

α2-adrenoceptor [5] = assay: Duration of the α2-blocking action (antagonism of detomidine mydriasis after oral pretreatment); format: in vivo; conditions: rat, equipotent doses, pretreatment 1, 2, 4, 7 or 16 hours, time for antagonist effect to fall by half
Experimental: The duration of the α2 -blocking action of the compounds was determined as follows: the antagonists were administered orally at equipotent doses to groups of 4 rats 1, 2, 4, 7 or 16 hours before induction of anaesthesia and challenge with cumulative i.v. dosing of detomidine. By calculating the percentage antagonism of the mydriatic effect of 0.1 mg/kg detomidine for each pretreatment group, a time-effect relationship was established. This in turn permitted the measurement of the time taken for the antagonist effect to fall by half.

α2-adrenoceptor [6] = target: T3, α2-adrenoceptor (Rattus norvegicus, UniProt P22909); assay: Relative peroral bioavailability (α2-blocking potency after peroral vs parenteral administration); format: in vivo; conditions: equipotent doses 0.3 to 3 mg/kg, 1 hour before anaesthesia
T3 construct: transmitted via postsynaptic α2 -receptors in the central nervous system; from tissue; host or cells: whole anaesthetized rat (in vivo), central nervous system
T3 sequence (P22909 1-465): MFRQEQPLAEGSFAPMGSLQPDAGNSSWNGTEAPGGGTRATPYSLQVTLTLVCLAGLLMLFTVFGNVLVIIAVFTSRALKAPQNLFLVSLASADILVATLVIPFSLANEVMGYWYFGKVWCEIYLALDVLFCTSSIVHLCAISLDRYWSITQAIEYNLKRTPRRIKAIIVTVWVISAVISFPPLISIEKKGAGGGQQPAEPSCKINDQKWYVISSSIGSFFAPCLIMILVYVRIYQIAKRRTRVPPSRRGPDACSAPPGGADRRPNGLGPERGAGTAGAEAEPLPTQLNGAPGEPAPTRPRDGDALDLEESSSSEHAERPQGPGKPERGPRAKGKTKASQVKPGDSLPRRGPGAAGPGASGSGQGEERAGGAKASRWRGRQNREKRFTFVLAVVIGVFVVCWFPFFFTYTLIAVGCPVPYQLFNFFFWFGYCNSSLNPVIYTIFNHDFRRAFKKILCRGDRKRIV
Experimental: The relative bioavailability of the antagonists when administered orally was evaluated by comparing the potency of their α2 -blocking effect after peroral and parenteral administration. The antagonists were administered at equipotent doses (0.3 to 3 mg/kg) to groups of rats 1 hour before induction of anaesthesia and challenge with detomidine as described above in relation to the measurement of duration of action.

rats = assay: Effects on learning and memory in linear arm maze task; format: in vivo, rat; conditions: for learning and memory effect (overall): adult rats; for time to solve the task / number of errors (reentries into arms already visited): rats; for time to solve the task: effect on learning and speed to make correct choices; for number of errors (reentries into arms already visited): effect on working memory
Experimental: The linear arm maze is a modified version of radial arm maze, which is a generally used memory test in rats. […] Water was also used as control. All injections were made in a volume 1 ml/kg.
Apparatus: The maze was a wooden platform in a shape of two crosses one after another. The stem (starting arm) was 90 cm long and 12 cm wide. The five other arms (goal arms) were 50 cm long and 12 cm wide. Four goal arms were situated perpendicularly to the stem and to the fifth arm which located opposite to the stem. On either side of the stem and the arms were edges, 2.0 cm high. At the end of each goal arm a hole 1 cm deep and 3 cm in diameter, served as a food cup. The starting platform (20×20 cm) was separated from the stem by a quillotine door. The door was 12 cm high and 7 cm wide. The door frame was 20 cm high and 20 cm wide. The maze was elevated 31 cm above the floor, in a low-lighted test room which contained other objects as well as the test apparatus. The holes at the end of the goal arms were baited with three pellets of prize food (45 mg pellets Bio Serve Inc.).
Procedures: Two days prior to training, animals were placed on a food deprivation schedule that reduces their body weights to 90% of initial weights. During these days the rats were habituated to handling (three times/day), test room and prize food. On the second day they were also habituated to the unbaited maze: three to five animals from the same cage at the same time for ten minutes. On the third day the goal arms were baited, and the teaching trial, one rat at a time, was carried out. The rat received drug or distilled water and […] later it was placed in the starting platform. After ten seconds the door was opened and the rat was allowed to explore the maze until all the baits were found. The time to find all the baits and reentries made into already visited arms was recorded. This time every rate was allowed to stay in the maze at least for five minutes. On the next day the proper memory and learning testing began and continued for four days (testing days 1 to 4). Rats were given eight trials, two per day. Inter trial interval was 50 minutes. Drugs or distilled water were administered 30 minutes before the first trial of the day. Otherwise testing trials were identical to the teaching trial. All the observations were done blind so that test solutions were in coded flasks.
Statistical analysis: The results were expressed as mean time/trial/day (seconds) and mean errors/trial/day. The analysis of variance for the repeated measurements (ANOVA) was used to compare the drugs' and the testing days' effects on learning and memory.

[7] = Acute toxicity (LD50) using mice; conditions: mouse, in vivo, po
Experimental: For example, the LD50 for 7-(4-(5-fluoro-2,3-dihydro-1H-inden-2-yl)-1H-imidazole) is 100 mg/kg (p.o.).

[8] = antagonist given prior to detomidine, mouse vas deferens, read-out: α2-Antagonism (pA2 vs detomidine) mouse vas deferens (converted)

Row | Kb (α2-adrenoceptor [1]; [8]) [nM] | α1-Agonism (pD2) rat vas deferens (α1-adrenoceptor [3]) | Peroral bioavailability (α2-adrenoceptor [6]) | Structure (SMILES) | α1-Antagonism (pA2 vs phenylephrine) rat vas deferens (α1-adrenoceptor [2]) | α2-Antagonism ED50 (iv) (α2-adrenoceptor [4]) [µg/kg] | t1/2 of α2-antagonism (α2-adrenoceptor [5]) [h] | Kb (α2-adrenoceptor [1]) [nM] | also measured
1 | 1260 | no effect | 89 | CCC1(c2c[nH]cn2)Cc2ccc(F)cc2C1=O (stereo not drawn) [Compound 4, 2-Ethyl-6-fluoro-2,3-dihydro-2-(1H-imidazol-4-yl)-1H-inden-1-one] | no effect | 300 | 6 |  | learning and memory effect (overall) (rats; 3 mg/kg p.o. (hydrochloride)): learning and memory enhancing effects; time to solve the task (rats; 3 mg/kg p.o. (hydrochloride)): decreased the time to solve the task; number of errors (reentries into arms already visited) (rats; 3 mg/kg p.o. (hydrochloride)): decreased number of errors
2 | 251 |  |  | CCC1(c2c[nH]cn2)Cc2ccc(Cl)cc2C1=O (stereo not drawn) [Compound 5, 6-Chloro-2-ethyl-2,3-dihydro-2-(1H-imidazol-4-yl)-1H-inden-1-one] |  |  |  |  | 
3 | 50.1 |  |  | CC1(c2c[nH]cn2)Cc2ccc(F)cc2C1 (stereo not drawn) [Compound 2, 4-(5-Fluoro-2,3-dihydro-2-methyl-1H-inden-2-yl)-1H-imidazole] |  |  |  |  | 
4 | 6.31 | no effect | 81 | CCC1(c2c[nH]cn2)Cc2ccc(F)cc2C1 (stereo not drawn) [Compound 1, 4-(2-Ethyl-5-fluoro-2,3-dihydro-1H-inden-2-yl)-1H-imidazole] | no effect | 15 | 3 |  | 
5 | 63.1 |  |  | CCC1(c2c[nH]cn2)Cc2ccc(O)cc2C1 (stereo not drawn) [Compound 8, 2-Ethyl-2-(1H-imidazol-4-yl)-5-indanol] |  |  |  |  | 

Second part, the compound before the results:

Row | Structure (SMILES) | Kb (α2-adrenoceptor [1]; [8]) [nM] | α1-Agonism (pD2) rat vas deferens (α1-adrenoceptor [3]) | Peroral bioavailability (α2-adrenoceptor [6]) | α1-Antagonism (pA2 vs phenylephrine) rat vas deferens (α1-adrenoceptor [2]) | α2-Antagonism ED50 (iv) (α2-adrenoceptor [4]) [µg/kg] | t1/2 of α2-antagonism (α2-adrenoceptor [5]) [h] | Kb (α2-adrenoceptor [1]) [nM] | also measured
6 | Fc1ccc2c(c1)CC(c1c[nH]cn1)C2 (stereo not drawn) [Compound 7, 4-(5-Fluoro-2,3-dihydro-1H-inden-2-yl)-1H-imidazole] |  |  | 80 |  | 10 | 7 | 10 | EC50 (α1-adrenoceptor [3]): 3160 nM; learning and memory effect (overall) (rats; 0.3 mg/kg s.c. (hydrochloride)): learning and memory enhancing effects; time to solve the task (rats; 0.3 mg/kg s.c. (hydrochloride)): decreased the time to solve the task; number of errors (reentries into arms already visited) (rats; 0.3 mg/kg s.c. (hydrochloride)): decreased number of errors; LD50 [7]: 100 mg/kg
7 | CCC1(c2c[nH]cn2)Cc2cc(F)c(F)cc2C1 [Compound 3, 4-(2-Ethyl-5,6-difluoro-2,3-dihydro-1H-inden-2-yl)-1H-imidazole] | 63.1 |  |  |  |  |  |  | 
8 | CCC1(c2cnc[nH]2)Cc2ccccc2C1 [atipamezole, reference compound] |  | no effect |  | 5.0 | 10 | 2 | 7.94 | learning and memory effect (overall) (rats; 0.3 mg/kg s.c. (hydrochloride)): learning and memory enhancing effects; time to solve the task (rats; 0.3 mg/kg s.c. (hydrochloride)): decreased the time to solve the task; number of errors (reentries into arms already visited) (rats; 0.3 mg/kg s.c. (hydrochloride)): decreased number of errors
9 | Fc1cccc2c1CC(c1c[nH]cn1)C2 (stereo not drawn) [Compound 6, 4-(4-Fluoro-2,3-dihydro-1H-inden-2-yl)-1H-imidazole] |  |  |  |  |  |  | 7.94 | EC50 (α1-adrenoceptor [3]): 316 nM; α1-Agonism, type of agonist (full/partial) (α1-adrenoceptor [3]; rat vas deferens): full agonist
